# Measured values as given in ChEMBL document CHEMBL6092146 (Bioorg Med Chem, 2024).
# Legend:
# SK-OV-3 = assay: cells; assay type: functional, cell-based; conditions: Homo sapiens, SK-OV-3, 48 h
# Description: Anticancer activity against human SK-OV-3 cells assessed as reduction in cell growth incubated for 48 hrs by MTT assay
# MDA-MB-231 = assay: cells; assay type: functional, cell-based; conditions: Homo sapiens, MDA-MB-231, 48 h
# Description: Anticancer activity against human MDA-MB-231 cells assessed as reduction in cell growth incubated for 48 hrs by MTT assay
# CNE = assay: cells; assay type: functional, cell-based; conditions: Homo sapiens, 48 h
# Description: Anticancer activity against human CNE cells assessed as reduction in cell growth incubated for 48 hrs by MTT assay
# CNE-2 = assay: Anticancer activity against human CNE-2 cells assessed as reduction in cell viability incubated for 72 hrs by MTT assay; assay type: functional, cell-based; conditions: CNE-2, 72 h
# cells = conditions: Homo sapiens, SPCA1, 72 h
# Description: Anticancer activity against human SPCA1 cells assessed as reduction in cell viability incubated for 72 hrs by MTT assay
# Escherichia coli = assay: microbe, parasite or virus in culture
# Description: Antibacterial activity against Escherichia coli assessed as inhibition of bacterial growth by broth microdilution method
# Acinetobacter baumannii = assay: microbe, parasite or virus in culture; conditions: ATCC 19606
# Description: Antibacterial activity against Acinetobacter baumannii ATCC 19606 assessed as inhibition of bacterial growth by broth microdilution method
# Staphylococcus aureus = assay: microbe, parasite or virus in culture; conditions: Staphylococcus aureus, 171, 24 h
# Description: Antimicrobial activity against methicillin-resistant Staphylococcus aureus 171 clinical isolate assessed as bacterial growth inhibition incubated for 24 hrs by CLSI based broth microdilution method
# Pseudomonas aeruginosa = assay: microbe, parasite or virus in culture; conditions: Pseudomonas aeruginosa, 126, 24 h
# Description: Antibacterial activity against multidrug-resistant Pseudomonas aeruginosa 126 clinical isolate assessed as reduction in bacterial growth incubated for 24 hrs by CLSI based broth microdilution method
# HeLa [1] = assay: cells; conditions: Homo sapiens, 72 h
# Description: Anticancer activity against human HeLa cells assessed as reduction in cell viability incubated for 72 hrs by MTT assay
# HCT-116 = assay: cells; conditions: Homo sapiens, HCT-116, 72 h
# Description: Anticancer activity against human HCT-116 cells assessed as reduction in cell viability incubated for 72 hrs by MTT assay
# Acetylcholinesterase = Acetylcholinesterase (Electrophorus electricus, UniProt O42275); assay: Inhibition of electric eel AchE using acetylthiocholine as substrate incubated for 30 mins by Ellman's method
# Sequence of Acetylcholinesterase (O42275 whole entry): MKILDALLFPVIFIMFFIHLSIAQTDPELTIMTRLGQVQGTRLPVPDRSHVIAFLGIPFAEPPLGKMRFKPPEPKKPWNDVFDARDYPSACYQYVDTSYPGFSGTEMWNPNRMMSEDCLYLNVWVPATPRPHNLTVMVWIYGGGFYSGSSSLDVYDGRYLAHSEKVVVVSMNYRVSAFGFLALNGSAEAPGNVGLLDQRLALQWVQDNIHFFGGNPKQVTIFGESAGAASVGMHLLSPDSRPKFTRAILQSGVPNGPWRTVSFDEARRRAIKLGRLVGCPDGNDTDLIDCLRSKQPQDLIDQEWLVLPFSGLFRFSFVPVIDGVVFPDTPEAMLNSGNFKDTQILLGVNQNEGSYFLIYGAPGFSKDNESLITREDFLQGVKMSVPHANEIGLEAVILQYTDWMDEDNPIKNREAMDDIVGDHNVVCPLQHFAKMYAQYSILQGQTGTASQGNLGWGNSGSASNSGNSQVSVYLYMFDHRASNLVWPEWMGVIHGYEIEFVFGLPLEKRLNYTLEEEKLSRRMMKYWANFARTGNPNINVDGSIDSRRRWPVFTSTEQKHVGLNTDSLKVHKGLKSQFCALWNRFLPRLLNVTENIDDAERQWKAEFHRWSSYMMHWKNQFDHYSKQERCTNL
# Cholinesterase = Cholinesterase (Equus caballus, UniProt P81908); assay: Inhibition of equine serum BuChE using butyrylthiocholine iodide as substrate measured for 30 mins by ELLman's method
# Sequence of Cholinesterase (P81908 whole entry): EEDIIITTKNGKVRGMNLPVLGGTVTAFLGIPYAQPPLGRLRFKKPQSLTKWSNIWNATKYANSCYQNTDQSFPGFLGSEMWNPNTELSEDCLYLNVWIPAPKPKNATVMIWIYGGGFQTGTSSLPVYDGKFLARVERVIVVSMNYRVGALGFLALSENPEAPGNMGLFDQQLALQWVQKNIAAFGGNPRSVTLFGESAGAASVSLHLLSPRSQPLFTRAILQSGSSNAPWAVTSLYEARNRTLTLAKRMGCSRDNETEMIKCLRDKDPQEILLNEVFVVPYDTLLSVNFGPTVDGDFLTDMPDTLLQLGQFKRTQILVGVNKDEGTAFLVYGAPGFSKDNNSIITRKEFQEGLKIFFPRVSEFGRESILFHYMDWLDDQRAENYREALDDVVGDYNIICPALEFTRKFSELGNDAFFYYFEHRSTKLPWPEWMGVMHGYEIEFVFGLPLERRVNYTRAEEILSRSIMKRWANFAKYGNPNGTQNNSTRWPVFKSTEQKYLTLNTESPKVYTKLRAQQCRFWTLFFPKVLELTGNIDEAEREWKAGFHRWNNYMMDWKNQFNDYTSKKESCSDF
# HEK-293T = assay: Antiproliferative activity against HEK293T cells assessed as reduction in cell viability incubated for 48 hrs by CCK-8 assay; assay type: functional, cell-based; conditions: Homo sapiens
# HepG2 [2] = assay: cells; conditions: Homo sapiens, HepG2, 48 h
# MCF7 = assay: Antiproliferative activity against human MCF7 cells assessed as reduction in cell viability incubated for 48 hrs by CCK-8 assay; assay type: functional, cell-based; conditions: MCF7, 48 h
# KB = assay: Antiproliferative activity against human KB cells assessed as reduction in cell viability incubated for 48 hrs by CCK-8 assay; assay type: functional, cell-based
# HeLa [3] = assay: Antiproliferative activity against human HeLa cells assessed as reduction in cell viability incubated for 48 hrs by CCK-8 assay; assay type: functional, cell-based
# HepG2 [4] = assay: cells; conditions: Homo sapiens, HepG2, 72 h
# Description: Anticancer activity against human HepG2 cells assessed as reduction in cell viability incubated for 72 hrs by MTT assay
# [5] = Antiproliferative activity against human GBM-0627-GFD cells assessed as reduction in cell viability by MTT assay; assay type: functional, cell-based
compound,measurement,setting,value
O=C(Nc1ccc2ncnc(Nc3ccc(F)cc3)c2c1)c1cc(OCc2ccccc2)c2c(c1)C(=O)c1cccc(OCc3ccccc3)c1C2=O,IC50,SK-OV-3,20.5 µM
same,IC50,MDA-MB-231,3 µM
same,IC50,CNE,12.4 µM
CCOP(=O)(OCC)C(NC(=O)c1cc(O)c2c(c1)C(=O)c1cccc(O)c1C2=O)c1cccc(OC)c1 (configuration not stated),IC50,CNE-2,24.1 µM
same,IC50,cells,28.3 µM
CCOP(=O)(OCC)C(NC(=O)c1cc(O)c2c(c1)C(=O)c1cccc(O)c1C2=O)c1ccccc1OC (configuration not stated),IC50,CNE-2,28.6 µM
same,IC50,cells,15 µM
CO/N=C(\C(=O)N[C@@H]1C(=O)N2C(C(=O)O)=C(COC(N)=O)CS[C@H]12)c1ccco1 [CEFUROXIME],MIC,Escherichia coli,64 µg/mL
same,MIC,Acinetobacter baumannii,1020 µg/mL
same,MIC,Staphylococcus aureus,1020 µg/mL
same,MIC,Pseudomonas aeruginosa,1020 µg/mL
CCOP(=O)(OCC)C(C)(NC(=O)c1cc(O)c2c(c1)C(=O)c1cccc(O)c1C2=O)c1ccc(C)cc1 (configuration not stated),IC50,CNE-2,33.8 µM
same,IC50,HeLa [1],> 50 µM
same,IC50,cells,16.9 µM
same,IC50,HCT-116,30.6 µM
O=C(NCCCCCCNc1c2c(nc3cc(Cl)ccc13)CCCC2)c1cc(O)c2c(c1)C(=O)c1cccc(O)c1C2=O,IC50,Acetylcholinesterase,0.022 µM
same,IC50,Cholinesterase,0.773 µM
CC(C)[C@H](NC(=O)c1cc(OCc2cccc(F)c2)c2c(c1)C(=O)c1cccc(OCc3cccc(F)c3)c1C2=O)C(=O)O,IC50,HEK-293T,12.9 µM
same,IC50,HepG2 [2],29.6 µM
same,IC50,MCF7,38.6 µM
same,IC50,KB,17.8 µM
same,IC50,HeLa [3],35.4 µM
CCOP(=O)(OCC)C(NC(=O)c1cc(O)c2c(c1)C(=O)c1cccc(O)c1C2=O)c1ccccc1 (configuration not stated),IC50,CNE-2,34.3 µM
same,IC50,cells,27.4 µM
COc1ccc(C[n+]2ccc(CCCOC(=O)c3cc(O)c4c(c3)C(=O)c3cccc(O)c3C4=O)cc2)cc1.[Br-],MIC,Escherichia coli,> 128 µg/mL
same,MIC,Acinetobacter baumannii,128 µg/mL
same,MIC,Staphylococcus aureus,16 µg/mL
same,MIC,Pseudomonas aeruginosa,32 µg/mL
COc1cccc(Nc2ncnc3ccc(NC(=O)c4cc(OCc5ccccc5)c5c(c4)C(=O)c4cccc(OCc6ccccc6)c4C5=O)cc23)c1,IC50,SK-OV-3,68.6 µM
same,IC50,MDA-MB-231,74.1 µM
same,IC50,CNE,56.4 µM
Cc1ccc(Nc2ncnc3ccc(NC(=O)c4cc(OCc5ccccc5)c5c(c4)C(=O)c4cccc(OCc6ccccc6)c4C5=O)cc23)cc1,IC50,MDA-MB-231,3.1 µM
CCOP(=O)(OCC)C(C)(CCc1ccccc1)NC(=O)c1cc(O)c2c(c1)C(=O)c1cccc(O)c1C2=O (configuration not stated),IC50,CNE-2,27.3 µM
same,IC50,HeLa [1],45.4 µM
same,IC50,cells,9.01 µM
same,IC50,HCT-116,12.7 µM
N#Cc1ccc(C[n+]2ccc(CCCNC(=O)c3cc(O)c4c(c3)C(=O)c3cccc(O)c3C4=O)cc2)cc1.[Br-],MIC,Escherichia coli,64 µg/mL
same,MIC,Acinetobacter baumannii,> 128 µg/mL
same,MIC,Staphylococcus aureus,16 µg/mL
same,MIC,Pseudomonas aeruginosa,32 µg/mL
CCOP(=O)(OCC)C(NC(=O)c1cc(O)c2c(c1)C(=O)c1cccc(O)c1C2=O)c1cccc(Cl)c1 (configuration not stated),IC50,CNE-2,68 µM
same,IC50,HeLa [1],35.2 µM
same,IC50,HepG2 [4],39.2 µM
same,IC50,cells,28.3 µM
same,IC50,HCT-116,48.2 µM
CCCCOc1cccc2c1C(=O)c1c(OCCCC)cc(C(=O)N[C@H](C(=O)O)C(C)C)cc1C2=O,IC50,HEK-293T,43.1 µM
same,IC50,HepG2 [2],54.4 µM
same,IC50,MCF7,> 100 µM
same,IC50,KB,28.6 µM
same,IC50,HeLa [3],67.8 µM
O=C(NCCCCCCNc1c2c(nc3ccccc13)CCC2)c1cc(O)c2c(c1)C(=O)c1cccc(O)c1C2=O,IC50,Acetylcholinesterase,0.543 µM
same,IC50,Cholinesterase,0.219 µM
COc1ccc(Nc2ncnc3ccc(NC(=O)c4cc(OCc5ccccc5)c5c(c4)C(=O)c4cccc(OCc6ccccc6)c4C5=O)cc23)cc1,IC50,SK-OV-3,> 100 µM
same,IC50,MDA-MB-231,42.4 µM
same,IC50,CNE,24.8 µM
O=C(NCCCCNc1c2c(nc3ccccc13)CCCC2)c1cc(O)c2c(c1)C(=O)c1cccc(O)c1C2=O,IC50,Acetylcholinesterase,0.0587 µM
same,IC50,Cholinesterase,0.286 µM
O=C(NCCCCCCCCNc1c2c(nc3ccccc13)CCCC2)c1cc(O)c2c(c1)C(=O)c1cccc(O)c1C2=O,IC50,Acetylcholinesterase,0.148 µM
same,IC50,Cholinesterase,0.36 µM
O=C(CCCCCNC(=O)c1cc(O)c2c(c1)C(=O)c1cccc(O)c1C2=O)NO,IC50,[5],5.5 µM
N[C@@H](CCCCNC(=O)c1cc(O)c2c(c1)C(=O)c1cccc(O)c1C2=O)C(=O)O,IC50,[5],> 80 µM
CC(C)c1ccc(COc2cccc3c2C(=O)c2c(OCc4ccc(C(C)C)cc4)cc(C(=O)N[C@H](C(=O)O)C(C)C)cc2C3=O)cc1,IC50,HEK-293T,1.9 µM
same,IC50,HepG2 [2],5.8 µM
same,IC50,MCF7,13.9 µM
same,IC50,KB,9.4 µM
same,IC50,HeLa [3],37.5 µM
Cc1cccc(Nc2ncnc3ccc(NC(=O)c4cc(OCc5ccccc5)c5c(c4)C(=O)c4cccc(OCc6ccccc6)c4C5=O)cc23)c1,IC50,SK-OV-3,> 100 µM
same,IC50,MDA-MB-231,49.9 µM
same,IC50,CNE,5.9 µM
CCOP(=O)(OCC)C(NC(=O)c1cc(O)c2c(c1)C(=O)c1cccc(O)c1C2=O)c1ccc(OC)cc1 (configuration not stated),IC50,CNE-2,42.9 µM
same,IC50,cells,38.9 µM
CCOP(=O)(OCC)C(C)(NC(=O)c1cc(O)c2c(c1)C(=O)c1cccc(O)c1C2=O)c1ccccc1 (configuration not stated),IC50,CNE-2,38.3 µM
same,IC50,HeLa [1],> 50 µM
same,IC50,cells,25.1 µM
same,IC50,HCT-116,23.4 µM
Cc1ccc(C[n+]2ccc(CCCOC(=O)c3cc(O)c4c(c3)C(=O)c3cccc(O)c3C4=O)cc2)cc1.[Br-],MIC,Escherichia coli,64 µg/mL
same,MIC,Acinetobacter baumannii,> 128 µg/mL
same,MIC,Staphylococcus aureus,8 µg/mL
same,MIC,Pseudomonas aeruginosa,16 µg/mL
O=c1[nH]cc(F)c(=O)[nH]1 [FLUOROURACIL],IC50,CNE-2,40.2 µM
same,IC50,HepG2 [4],30 µM
same,IC50,cells,42.2 µM
CC(C)[C@H](NC(=O)c1cc(OCc2ccccc2)c2c(c1)C(=O)c1cccc(OCc3ccccc3)c1C2=O)C(=O)O,IC50,HEK-293T,21.5 µM
same,IC50,HepG2 [2],36.1 µM
same,IC50,MCF7,36.5 µM
same,IC50,KB,15.6 µM
same,IC50,HeLa [3],44.9 µM
CC(C)[C@H](NC(=O)c1cc(OCCCc2ccccc2)c2c(c1)C(=O)c1cccc(OCCCc3ccccc3)c1C2=O)C(=O)O,IC50,HEK-293T,1.6 µM
same,IC50,HepG2 [2],3.6 µM
same,IC50,MCF7,4.5 µM
same,IC50,KB,4.9 µM
same,IC50,HeLa [3],9.4 µM
